Experimental data reported in PubChem BioAssay (NCI).
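How tested: cells in 96-well plates exposed to compound for 48 hours at five concentrations. TGI: concentration producing complete growth inhibition.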

Key:
Assay in all cases: inhibition of tumour cell growth, NCI panel, 48 h
HCT-15 colon = tested on: HCT-15 colon
RXF 393 renal = tested on: RXF 393 renal
HT29 colon = tested on: HT29 colon
OVCAR-3 ovarian = tested on: OVCAR-3 ovarian
RPMI-8226 leukemia = tested on: RPMI-8226 leukemia
SR leukemia = tested on: SR leukemia
NCI-H23 lung = tested on: NCI-H23 lung
NCI-H226 lung = tested on: NCI-H226 lung
OVCAR-8 ovarian = tested on: OVCAR-8 ovarian
LOX IMVI melanoma = tested on: LOX IMVI melanoma
HCT-116 colon = tested on: HCT-116 colon
IGROV1 ovarian = tested on: IGROV1 ovarian
HOP-92 NSCLC = tested on: HOP-92 NSCLC
786-0 renal = tested on: 786-0 renal
TK-10 renal = tested on: TK-10 renal
U251 CNS = tested on: U251 CNS
A498 renal = tested on: A498 renal
NCI-H522 lung = tested on: NCI-H522 lung

SMILES	TGI (HCT-15 colon)	TGI (RXF 393 renal)	TGI (HT29 colon)	TGI (OVCAR-3 ovarian)	TGI (RPMI-8226 leukemia)	TGI (SR leukemia)	TGI (NCI-H23 lung)	TGI (NCI-H226 lung)	TGI (OVCAR-8 ovarian)	TGI (LOX IMVI melanoma)	TGI (HCT-116 colon)	TGI (IGROV1 ovarian)	TGI (HOP-92 NSCLC)	TGI (786-0 renal)	TGI (TK-10 renal)	TGI (U251 CNS)	TGI (A498 renal)	TGI (NCI-H522 lung)
O=C(Nc1nnc(-c2c(Cl)c(Cl)c(Cl)c(Cl)c2-c2nc3cc(C(=O)c4ccccc4)ccc3[nH]2)o1)c1ccccc1	36.7 µM	39.1 µM	63.6 µM	44.7 µM	30.4 µM	20.9 µM	54.2 µM	35.5 µM	> 100 µM	32 µM	87.3 µM	42 µM	44.5 µM	30.5 µM	50.7 µM	26.5 µM	49.6 µM	
CN1CCCC1=NC#N	> 100 µM	> 100 µM	> 100 µM	> 100 µM	> 100 µM	> 100 µM	> 100 µM	> 100 µM	> 100 µM	> 100 µM	> 100 µM	> 100 µM		> 100 µM	> 100 µM	> 100 µM	> 100 µM	> 100 µM
COc1cc2nc(-c3ccccc3F)[nH]c(=O)c2cc1OC	> 100 µM	> 100 µM	> 100 µM	> 100 µM	> 100 µM	> 100 µM	> 100 µM	> 100 µM	> 100 µM	> 100 µM	> 100 µM	> 100 µM	> 100 µM	> 100 µM	> 100 µM		> 100 µM	> 100 µM
COc1ccc(OC)c(-c2nc3ccccc3c(=O)[nH]2)c1	> 100 µM	> 100 µM	> 100 µM	> 100 µM	> 100 µM	> 100 µM	> 100 µM	> 100 µM	> 100 µM		> 100 µM	> 100 µM		> 100 µM		> 100 µM	> 100 µM	
COc1ccc(/C=C2\SC(c3ccc(OC)cc3)N(NC(=O)Cc3ccccc3)C2=O)cc1 (stereo unspecified)	> 100 µM	> 100 µM	> 100 µM		> 100 µM	> 100 µM	> 100 µM	> 100 µM	> 100 µM	> 100 µM	> 100 µM	> 100 µM	> 100 µM	> 100 µM	> 100 µM	> 100 µM	> 100 µM	> 100 µM
Cc1c2cccc-2ccc2c1[nH]c1ccc(Br)cc12	14 µM		27.9 µM	13.9 µM	10.2 µM	> 100 µM	22.4 µM	5.6 µM	22.4 µM	15 µM	17.2 µM	15 µM	9.94 µM	27.5 µM	32.2 µM	12.1 µM	37.9 µM	6.29 µM
CC(C)(C)OC(=O)NC(Cc1ccc(OCc2ccccc2)cn1)C(=O)NCc1ccccc1 (stereo unspecified)	72.8 µM	> 100 µM	> 100 µM	43.2 µM	44.9 µM	30.5 µM	47.3 µM		82.1 µM	39.4 µM	83.6 µM	> 100 µM	60.4 µM	> 100 µM	> 100 µM	> 100 µM	> 100 µM	47.1 µM
COc1ccc(C2CC(c3ccc4ccccc4c3O)=NN2C(C)=O)cc1OC (stereo unspecified)	> 100 µM	> 100 µM	> 100 µM	> 100 µM	> 100 µM	> 100 µM	> 100 µM	> 100 µM	> 100 µM		> 100 µM	> 100 µM	> 100 µM	> 100 µM	> 100 µM	> 100 µM	> 100 µM	> 100 µM
Cc1nc(-c2cc3c(ccc4ccccc43)oc2=O)cc2c1c(=O)oc1ccc3ccccc3c12	> 100 µM	> 100 µM	> 100 µM	> 100 µM		> 100 µM	> 100 µM		> 100 µM	> 100 µM	> 100 µM	> 100 µM	> 100 µM	> 100 µM	> 100 µM	> 100 µM	> 100 µM	> 100 µM
Cc1cc(S(=O)(=O)n2ccnc2Oc2ccccc2)c(SSc2cc(Cl)c(C)cc2S(=O)(=O)n2ccnc2Oc2ccccc2)cc1Cl	> 100 µM	> 100 µM	> 100 µM	> 100 µM	> 100 µM	> 100 µM		> 100 µM	> 100 µM	> 100 µM	> 100 µM	> 100 µM	> 100 µM	> 100 µM	> 100 µM	> 100 µM	> 100 µM	> 100 µM
Cc1cc(C)n(-c2nc3ccccc3c(=O)n2-c2ccccc2)n1	> 100 µM	> 100 µM	> 100 µM	> 100 µM		> 100 µM	> 100 µM	> 100 µM	> 100 µM	> 100 µM	> 100 µM	> 100 µM		> 100 µM	> 100 µM	> 100 µM	> 100 µM	> 100 µM
N#Cc1c(N)c2c(c(-c3ccccc3)c1-c1ccccc1)C(=O)N(NC(=O)c1ccccc1)C2=O	> 100 µM	> 100 µM		> 100 µM	> 100 µM	> 100 µM		> 100 µM	> 100 µM	> 100 µM	> 100 µM	> 100 µM	> 100 µM	> 100 µM	> 100 µM	> 100 µM	> 100 µM	> 100 µM
O=C1c2cscc2C(=O)C1(O)O	> 100 µM		> 100 µM	67.5 µM	> 100 µM	49.3 µM	45.9 µM	> 100 µM	> 100 µM	> 100 µM	46.3 µM	> 100 µM	> 100 µM	> 100 µM	> 100 µM	> 100 µM	> 100 µM	40.3 µM
CC1=C(C#N)C2C(=C(N)Oc3ccccc32)C(N)=N1 (stereo unspecified)	41.4 µM	> 100 µM	87.7 µM	> 100 µM	77.3 µM	> 100 µM		66.2 µM	56.8 µM	81.7 µM	> 100 µM	76.7 µM		60.9 µM	47.5 µM	> 100 µM	74.2 µM	36.2 µM
